Legend:
[1] = tested on: PAXF1657 control empty vector cell line; assay: 7-day proliferation assay, PAXF1657 control empty vector cell line (Example 9); assay type: cell-based; settings: 168 h; Cell Line: PAXF1657 empty vector (EV) cell line; 7-day; read-out: C: 7-day proliferation assay: IC50 GeoMean
Procedure, shortened: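 Viability by CellTiter-Glo after 7 days at 37° C., with compound-containing media replaced on day 3. Cells (500/well, RPMI1640 + 10% FBS) were PAXF1657 pairs: GRK2 overexpression vs empty vector, or CRISPR GRK2 knockout vs non-targeting clones; doses 30 μM-0.0002 μM final, 10 points, 0.3% DMSO.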

GRK2 [2] = biological target: T1, GRK2 (Homo sapiens, UniProt P25098); assay: ADPGlo GRK2 Inhibition Assay (Example 8); assay type: biochemical
T1 construct: purchased SignalChem A14-10G
T1 sequence (P25098 1-689): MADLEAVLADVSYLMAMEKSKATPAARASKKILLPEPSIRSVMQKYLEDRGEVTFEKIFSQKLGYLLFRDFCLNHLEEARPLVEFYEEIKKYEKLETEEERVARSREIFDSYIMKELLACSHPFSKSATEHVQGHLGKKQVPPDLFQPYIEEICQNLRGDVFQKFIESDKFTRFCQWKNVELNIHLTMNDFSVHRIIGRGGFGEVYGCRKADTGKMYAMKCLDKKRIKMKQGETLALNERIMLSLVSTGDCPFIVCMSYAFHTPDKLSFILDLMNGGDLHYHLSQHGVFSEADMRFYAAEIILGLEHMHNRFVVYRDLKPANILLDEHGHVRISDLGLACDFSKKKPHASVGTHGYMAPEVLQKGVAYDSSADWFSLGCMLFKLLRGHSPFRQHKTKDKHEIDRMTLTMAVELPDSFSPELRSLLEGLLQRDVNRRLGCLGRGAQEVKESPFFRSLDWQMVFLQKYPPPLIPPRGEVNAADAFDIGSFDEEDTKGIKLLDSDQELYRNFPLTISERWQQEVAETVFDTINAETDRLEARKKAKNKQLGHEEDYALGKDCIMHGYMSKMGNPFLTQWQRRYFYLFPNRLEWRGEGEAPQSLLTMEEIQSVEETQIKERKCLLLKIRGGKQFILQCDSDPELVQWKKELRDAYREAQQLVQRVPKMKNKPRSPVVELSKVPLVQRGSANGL
Procedure, shortened: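 GRK2 (15 nM 2× enzyme solution) was preincubated 15 min with compound, then reacted 180 min at room temperature with 2× mix of 20 μM ATP plus GRKtide in HEPES pH 7.5, MgCl2, Tween-20, DTT. ADP was detected by ADP-Glo luminescence. Percent inhibition was normalised to enzyme and no-enzyme controls, with dose-response curves from threefold dilutions starting at 100 μM.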

GRK2 [3] = biological target: T1, GRK2; assay: GRK2 Inhibition Assay (TR-FRET, Example 7); assay type: biochemical
Procedure, shortened: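 GRK2 at 1 nM preincubated 30 min with compound, then reacted 90 min at room temperature with 7 μM ATP and 50 nM ULight-TopoIIα in HEPES/MgCl2/DTT buffer. Phosphorylation detected by TR-FRET after Eu anti-TopoIIα and EDTA addition, 60 min.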

[4] = Enzyme Assay A, ADPGlo (Example 8), read-out: A: Enzymatic GRK2: IC50 (nM) (Example 8)
[5] = Enzyme Assay B, TR-FRET (Example 7), read-out: B: Enzymatic GRK2: IC50 (nM) (Example 7)
[6] = ADPGlo GRK2 enzyme assay, read-out: A: Enzymatic GRK2: IC50 (nM) (Example 8)
[7] = TR-FRET GRK2 enzyme assay, read-out: B: Enzymatic GRK2: IC50 (nM) (Example 7)

| SMILES | IC50 (GRK2 [2]; [4]) [nM] | IC50 (GRK2 [3]; [5]) [nM] | IC50 [1] [nM] | further results |
| --- | --- | --- | --- | --- |
| Cn1c(CNc2cccc(C(=O)N[C@H]3CCOc4ccccc43)c2)nnc1-c1ccncc1F | 44.3 | 59 | 1490 |  |
| Cn1c(CNc2cccc(C(=O)N[C@H]3c4ccccc4C[C@H]3O)c2)nnc1-c1ccncn1 | 7.3 | 24 | 1410 |  |
| Cc1cc2c(cc1CNC(=O)c1ccnc(NCc3nnc(-c4ccncn4)n3C)c1)OCCO2 | 22.1 | 11.6 | > 330 |  |
| Cn1c(CNc2cc(C(=O)N[C@H]3COc4ccccc43)ccn2)nnc1-c1ccncn1 | 12.9 | 15.3 | 476 |  |
| O=C(N[C@H]1CCOc2ccccc21)c1cccc(NCc2nnc(-c3ccncn3)n2CCO)c1 | 4.1 | 2.5 | 104 |  |
| Cc1cccc([C@H](CO)NC(=O)c2cccc(NCc3nnc(-c4ccncn4)n3CCO)c2)c1 | 2.32 | < 0.8 | 50 |  |
| O=C(N[C@@H]1COc2ccccc21)c1cccc(NCc2nnc(-c3ccncn3)n2CCO)c1 | 1.95 | < 3.6 | 90 |  |
| C[C@H](NC(=O)c1cccc(NCc2nnc(-c3ccncn3)n2CCO)c1)c1ncccc1Cl | 4.89 | 0.88 | > 220 |  |
| C#Cc1cccc(OS(=O)(=O)F)c1CNC(=O)c1cccc(NCc2nnc(-c3ccncc3)[nH]2)c1 |  |  | 1550 | IC50 (GRK2 [2]): 8.94 nM; IC50 (GRK2 [3]): 4.2 nM |
| C#COc1cccc(OS(=O)(=O)F)c1CNC(=O)c1cccc(NCc2nnc(-c3ccncc3)[nH]2)c1 | 15.5 | 7.7 | 13300 |  |
| Cc1ccc2c(c1)[C@H](NC(=O)c1cccc(NCc3nnc(-c4ccncn4)n3C)c1)CCO2 |  | 4.6 | 196 |  |
| Cc1ccc2c(c1)[C@@H](NC(=O)c1cccc(NCc3nnc(-c4ccncn4)n3C)c1)CCO2 |  | 210 | > 30000 |  |
| Cn1c(CNc2cccc(C(=O)N[C@@H]3CCOc4cc(Br)ccc43)c2)nnc1-c1ccncn1 |  | 7 | > 30000 |  |
| Cn1c(CNc2cccc(C(=O)N[C@H]3CCOc4cc(Br)ccc43)c2)nnc1-c1ccncn1 |  | 11 | > 30000 |  |
| Cn1c(CNc2cccc(C(=O)N[C@@H]3CCOc4cc(Cl)ccc43)c2)nnc1-c1ccncn1 |  | 8.4 | 240 |  |
| Cn1c(CNc2cccc(C(=O)N[C@@H]3CCOc4cccnc43)c2)nnc1-c1ccncn1 | 1.3 | 7 | 192 |  |

| SMILES | IC50 (GRK2 [2]; [4]) [nM] | IC50 (GRK2 [3]; [5]) [nM] | IC50 [1] [nM] | further results |
| --- | --- | --- | --- | --- |
| Cn1c(CNc2cccc(C(=O)N[C@H]3CCOc4cccnc43)c2)nnc1-c1ccncn1 | 144 | 990 | > 10100 |  |
| C[C@H](NC(=O)c1cccc(NCc2nnc(-c3ccncn3)n2C)c1)c1ncccc1Cl |  |  | 696 | IC50 (GRK2 [2]; [6]): 9.6 nM; IC50 (GRK2 [3]; [7]): 16 nM |
| Cn1c(CNc2cccc(C(=O)N[C@@H]3CCOc4c(Cl)cccc43)c2)nnc1-c1ccncn1 |  |  | > 470 | IC50 (GRK2 [2]; [6]): 8.2 nM; IC50 (GRK2 [3]; [7]): 3.6 nM |
| Cn1c(CNc2cccc(C(=O)N[C@H]3CCOc4c(Cl)cccc43)c2)nnc1-c1ccncn1 |  |  | > 1010 | IC50 (GRK2 [2]; [6]): 33.6 nM; IC50 (GRK2 [3]; [7]): 13.2 nM |
| CNS(=O)(=O)c1cccc(F)c1CNC(=O)c1cccc(NCc2nnc(-c3ccncn3)n2C)c1 |  |  | 732 | IC50 (GRK2 [2]; [6]): 7.36 nM; IC50 (GRK2 [3]; [7]): 12.7 nM |
| Cn1c(CNc2cccc(C(=O)N[C@H](C#N)c3ccc(F)cc3F)c2)nnc1-c1ccncn1 |  |  | 122 | IC50 (GRK2 [3]; [7]): 4.9 nM |
| Cn1c(CNc2cccc(C(=O)N[C@H](C#N)c3ccccc3C(F)(F)F)c2)nnc1-c1ccncn1 |  |  | 54.4 | IC50 (GRK2 [3]; [7]): 3.5 nM |
| Cn1c(CNc2cccc(C(=O)N[C@@H](C#N)c3ccccc3F)c2)nnc1-c1ccncn1 |  |  | 59.3 | IC50 (GRK2 [3]; [7]): 5.5 nM |
| Cn1c(CNc2cccc(C(=O)N[C@H](C#N)c3ccccc3F)c2)nnc1-c1ccncn1 |  |  | 82.6 | IC50 (GRK2 [3]; [7]): 6.8 nM |
| [2H]C([2H])(Nc1cccc(C(=O)N[C@H]2CCOc3ccccc32)c1)c1nnc(-c2ccccn2)n1C |  |  | 2650 | IC50 (GRK2 [3]; [7]): 8.3 nM |
| CCc1cnccc1CNC(=O)c1cccc(NCc2nnc(-c3ccncn3)n2[C@@H]2CCC[C@H](NC)C2)c1 |  |  | > 4570 | IC50 (GRK2 [2]; [6]): 456 nM; IC50 (GRK2 [3]; [7]): 57 nM |
| CCc1cnccc1CNC(=O)c1cccc(NCc2nnc(-c3ccncn3)n2[C@H]2CCC[C@H](NC)C2)c1 |  |  |  | IC50 (GRK2 [2]; [6]): 529 nM; IC50 (GRK2 [3]; [7]): 810 nM |
| COc1ncccc1CNC(=O)c1cccc(NCc2nnc(-c3ccncc3)[nH]2)c1 [compound 9] |  |  |  | IC50 (GRK2 [2]; 7.5 nM GRK2, 10 μM ATP, ADP-Glo, read-out: GRK2 IC50 (nM) (Example 8)): 12 nM; IC50 (GRK2 [3]; 1 nM GRK2, 7 μM ATP, TR-FRET, read-out: GRK2 IC50 (nM) (Example 7)): 5.8 nM |
| COc1ncccc1CNC(=O)c1cccc(NCc2nnc(-c3ccncc3)[nH]2)c1 [drawing 424] | 12 | 5.8 | > 11000 |  |
| Cn1c(CNc2cccc(C(=O)NC3CCOc4cccnc43)c2)nnc1-c1ccncn1 (stereo not drawn) [drawing 572] | 9.6 | 13 | 285 |  |
| CC(NC(=O)c1cccc(NCc2nnc(-c3ccncn3)n2C)c1)c1c[nH]cn1 (stereo not drawn) [drawing 599] | 5.7 | 60 | > 30000 |  |

Continued, in another order:

| IC50 (GRK2 [2]; [4]) [nM] | IC50 (GRK2 [3]; [5]) [nM] | SMILES | IC50 [1] [nM] | further results |
| --- | --- | --- | --- | --- |
| 0.96 | 3.2 | Cn1c(CNc2cccc(C(=O)NCc3cnc4ccccn34)c2)nnc1-c1ccncn1 | 1490 |  |
| 0.79 | 2.1 | Cc1cccc2nnc(CNC(=O)c3cccc(NCc4nnc(-c5ccncn5)n4C)c3)n12 | > 30000 |  |
| 20.2 | 9.4 | [2H]C([2H])(Nc1cccc(C(=O)NCc2ccncc2CC)c1)c1nnc(-c2ccncn2)n1C | > 30000 |  |
| 5.4 | 13 | COc1cccc(C(CO)NC(=O)c2cccc(NCc3nnc(-c4ccncn4)n3C)c2)c1 (stereo not drawn) [drawing 569] | > 30000 |  |
| 4.3 | 17 | Cn1c(CNc2cccc(C(=O)NCc3cnccc3Cl)c2)nnc1-c1ccncn1 [drawing 570] | 1190 |  |
| 9.4 | 15 | Cn1c(CNc2cccc(C(=O)NCc3ccc4c(c3)CCN4)c2)nnc1-c1ccncn1 [drawing 571] | > 30000 |  |
| 3.3 | 8.1 | Cc1ccc(C(CO)NC(=O)c2cccc(NCc3nnc(-c4ccncn4)n3C)c2)cc1 (stereo not drawn) [drawing 575] | > 30000 |  |
| 1.8 | 12 | CCOc1ccc(C(CO)NC(=O)c2cccc(NCc3nnc(-c4ccncn4)n3C)c2)cn1 (stereo not drawn) [drawing 577] | > 30000 |  |
| 9.5 | 18 | Cn1c(CNc2cccc(C(=O)NCc3ccc(-n4ccnn4)cc3)c2)nnc1-c1ccncn1 [drawing 579] | > 30000 |  |
| 9.5 | 6.7 | Cn1cccc1CNC(=O)c1cccc(NCc2nnc(-c3ccncn3)n2C)c1 [drawing 585] | 551 |  |
| 0.5 | 3.3 | Cc1cc2c(cc1CNC(=O)c1cccc(NCc3nnc(-c4ccncn4)n3C)c1)OCCO2 [drawing 588] | 996 |  |
| 1.1 | 8.6 | Cc1cccc(C(CO)NC(=O)c2cccc(NCc3nnc(-c4ccncn4)n3C)c2)c1 (stereo not drawn) [drawing 589] | 407 |  |
| 2.7 | 12 | Cn1c(CNc2cccc(C(=O)NCc3cccc(C#N)c3)c2)nnc1-c1ccncn1 [drawing 591] | > 30000 |  |
| 2.8 | 7.2 | Cc1ccc2ncc(CNC(=O)c3cccc(NCc4nnc(-c5ccncn5)n4C)c3)n2c1 [drawing 596] | > 30000 |  |
